Laboratory results as given in US20230049952A1, “METHODS AND COMPOUNDS FOR RESTORING MUTANT P53 FUNCTION” (PMV Pharmaceuticals, Inc., priority 2020, published 2023).

System: p53 signaling pathway in MT373 tumors
Assay: MT373 syngeneic sarcoma model: mouse p53 signaling pathway profiling panel
Type: in vivo

Compound: CCn1c(C#CCNc2ccccc2)cc2cc(CNC3CCN(C)CC3)ccc21 [Compound 1, 1-Anilino-3-{1-ethyl-5-[(1-methyl-4-piperidylamino)methyl]-1H-indol-2-yl}-2-propyne]
- Il6 fold increase or percent reduction vs vehicle control (150 mg/kg BIDx1, 8 h): 42.72 fold or %
- Jun fold increase or percent reduction vs vehicle control (150 mg/kg BIDx1, 8 h): 32.68 fold or %
- Kras fold increase or percent reduction vs vehicle control (150 mg/kg BIDx1, 8 h): 8.77 fold or %
- Lig4 fold increase or percent reduction vs vehicle control (150 mg/kg BIDx1, 8 h): 9.59 fold or %
- Mdm2 fold increase or percent reduction vs vehicle control (150 mg/kg BIDx1, 8 h): 7.29 fold or %
- Mdm4 fold increase or percent reduction vs vehicle control (150 mg/kg BIDx1, 8 h): 0.59 fold or %
- Mel1 fold increase or percent reduction vs vehicle control (150 mg/kg BIDx1, 8 h): 3.87 fold or %
- Mlh1 fold increase or percent reduction vs vehicle control (150 mg/kg BIDx1, 8 h): 28.64 fold or %
- Msh2 fold increase or percent reduction vs vehicle control (150 mg/kg BIDx1, 8 h): 35.13 fold or %
- Myod1 fold increase or percent reduction vs vehicle control (150 mg/kg BIDx1, 8 h): 14.90 fold or %
- Nf1 fold increase or percent reduction vs vehicle control (150 mg/kg BIDx1, 8 h): 17.13 fold or %
- Nfkb1 fold increase or percent reduction vs vehicle control (150 mg/kg BIDx1, 8 h): 6.02 fold or %
- Pcna fold increase or percent reduction vs vehicle control (150 mg/kg BIDx1, 8 h): 44.75 fold or %
- Pmaip1 fold increase or percent reduction vs vehicle control (150 mg/kg BIDx1, 8 h): 2.33 fold or %
- Ppm1d fold increase or percent reduction vs vehicle control (150 mg/kg BIDx1, 8 h): 1.44 fold or %
- Prc1 fold increase or percent reduction vs vehicle control (150 mg/kg BIDx1, 8 h): 17.14 fold or %
- Prkca fold increase or percent reduction vs vehicle control (150 mg/kg BIDx1, 8 h): 27.03 fold or %
- Pten fold increase or percent reduction vs vehicle control (150 mg/kg BIDx1, 8 h): 14.47 fold or %
- Pttg1 fold increase or percent reduction vs vehicle control (150 mg/kg BIDx1, 8 h): 3.91 fold or %
- Rb1 fold increase or percent reduction vs vehicle control (150 mg/kg BIDx1, 8 h): 1.08 fold or %
- Rela fold increase or percent reduction vs vehicle control (150 mg/kg BIDx1, 8 h): 5.08 fold or %
- Rprm fold increase or percent reduction vs vehicle control (150 mg/kg BIDx1, 8 h): 1.81 fold or %
- Serpinb5 fold increase or percent reduction vs vehicle control (150 mg/kg BIDx1, 8 h): 2.43 fold or %
- Sesn2 fold increase or percent reduction vs vehicle control (150 mg/kg BIDx1, 8 h): 2.88 fold or %
- Sfn fold increase or percent reduction vs vehicle control (150 mg/kg BIDx1, 8 h): 15.09 fold or %
- Sirt1 fold increase or percent reduction vs vehicle control (150 mg/kg BIDx1, 8 h): 24.95 fold or %
- Stat1 fold increase or percent reduction vs vehicle control (150 mg/kg BIDx1, 8 h): 1.23 fold or %
- Tnf fold increase or percent reduction vs vehicle control (150 mg/kg BIDx1, 8 h): 1.57 fold or %
- Traf1 fold increase or percent reduction vs vehicle control (150 mg/kg BIDx1, 8 h): 1.4 fold or %
- Trp53bp2 fold increase or percent reduction vs vehicle control (150 mg/kg BIDx1, 8 h): 29.54 fold or %
- Trp53 fold increase or percent reduction vs vehicle control (150 mg/kg BIDx1, 8 h): 16.49 fold or %
- Apex1 fold increase or percent reduction vs vehicle control (150 mg/kg BIDx1, 24 h): 29.90 fold or %
- Atm fold increase or percent reduction vs vehicle control (150 mg/kg BIDx1, 24 h): 24.13 fold or %
- Atr fold increase or percent reduction vs vehicle control (150 mg/kg BIDx1, 24 h): 14.58 fold or %
- Bag1 fold increase or percent reduction vs vehicle control (150 mg/kg BIDx1, 24 h): 32.76 fold or %
- Bax fold increase or percent reduction vs vehicle control (150 mg/kg BIDx1, 24 h): 1.61 fold or %
- Bbc3 fold increase or percent reduction vs vehicle control (150 mg/kg BIDx1, 24 h): 2.27 fold or %
- Bcl2 fold increase or percent reduction vs vehicle control (150 mg/kg BIDx1, 24 h): 20.93 fold or %
- Bid fold increase or percent reduction vs vehicle control (150 mg/kg BIDx1, 24 h): 1.08 fold or %
- Birc5 fold increase or percent reduction vs vehicle control (150 mg/kg BIDx1, 24 h): 53.57 fold or %
- Brca1 fold increase or percent reduction vs vehicle control (150 mg/kg BIDx1, 24 h): 44.99 fold or %
- Brca2 fold increase or percent reduction vs vehicle control (150 mg/kg BIDx1, 24 h): 34.71 fold or %
- Btg2 fold increase or percent reduction vs vehicle control (150 mg/kg BIDx1, 24 h): 1.06 fold or %
- Casp2 fold increase or percent reduction vs vehicle control (150 mg/kg BIDx1, 24 h): 28.04 fold or %
- Ccnb1 fold increase or percent reduction vs vehicle control (150 mg/kg BIDx1, 24 h): 69.21 fold or %
- Ccne1 fold increase or percent reduction vs vehicle control (150 mg/kg BIDx1, 24 h): 38.46 fold or %
- Ccng1 fold increase or percent reduction vs vehicle control (150 mg/kg BIDx1, 24 h): 6.84 fold or %
- Ccnh fold increase or percent reduction vs vehicle control (150 mg/kg BIDx1, 24 h): 16.52 fold or %
- Cdc25a fold increase or percent reduction vs vehicle control (150 mg/kg BIDx1, 24 h): 41.75 fold or %
- Cdk1 fold increase or percent reduction vs vehicle control (150 mg/kg BIDx1, 24 h): 64.58 fold or %
- Cdk4 fold increase or percent reduction vs vehicle control (150 mg/kg BIDx1, 24 h): 55.89 fold or %
- Cdkn1a fold increase or percent reduction vs vehicle control (150 mg/kg BIDx1, 24 h): 10.93 fold or %
- Cdkn2a fold increase or percent reduction vs vehicle control (150 mg/kg BIDx1, 24 h): 36.93 fold or %
- Chek1 fold increase or percent reduction vs vehicle control (150 mg/kg BIDx1, 24 h): 58.77 fold or %
- Cradd fold increase or percent reduction vs vehicle control (150 mg/kg BIDx1, 24 h): 18.77 fold or %
- Cul9 fold increase or percent reduction vs vehicle control (150 mg/kg BIDx1, 24 h): 1.05 fold or %
- Dapk1 fold increase or percent reduction vs vehicle control (150 mg/kg BIDx1, 24 h): 1.14 fold or %
- Dnmt1 fold increase or percent reduction vs vehicle control (150 mg/kg BIDx1, 24 h): 22.85 fold or %
- E2f1 fold increase or percent reduction vs vehicle control (150 mg/kg BIDx1, 24 h): 26.25 fold or %
- E2f3 fold increase or percent reduction vs vehicle control (150 mg/kg BIDx1, 24 h): 39.40 fold or %
- Egfr fold increase or percent reduction vs vehicle control (150 mg/kg BIDx1, 24 h): 47.37 fold or %
- Egr1 fold increase or percent reduction vs vehicle control (150 mg/kg BIDx1, 24 h): 66.33 fold or %
- Ep300 fold increase or percent reduction vs vehicle control (150 mg/kg BIDx1, 24 h): 1.15 fold or %
- Ercc1 fold increase or percent reduction vs vehicle control (150 mg/kg BIDx1, 24 h): 34.86 fold or %
- Esr1 fold increase or percent reduction vs vehicle control (150 mg/kg BIDx1, 24 h): 1.24 fold or %
- Fadd fold increase or percent reduction vs vehicle control (150 mg/kg BIDx1, 24 h): 8.43 fold or %
- Fas fold increase or percent reduction vs vehicle control (150 mg/kg BIDx1, 24 h): 1.94 fold or %
- Fasl fold increase or percent reduction vs vehicle control (150 mg/kg BIDx1, 24 h): 6.77 fold or %
- Foxo3 fold increase or percent reduction vs vehicle control (150 mg/kg BIDx1, 24 h): 1.20 fold or %
- Gadd45a fold increase or percent reduction vs vehicle control (150 mg/kg BIDx1, 24 h): 38.66 fold or %
- Hif1a fold increase or percent reduction vs vehicle control (150 mg/kg BIDx1, 24 h): 10.42 fold or %
- Il6 fold increase or percent reduction vs vehicle control (150 mg/kg BIDx1, 24 h): 85.31 fold or %
- Jun fold increase or percent reduction vs vehicle control (150 mg/kg BIDx1, 24 h): 46.70 fold or %
- Kras fold increase or percent reduction vs vehicle control (150 mg/kg BIDx1, 24 h): 9.19 fold or %
- Lig4 fold increase or percent reduction vs vehicle control (150 mg/kg BIDx1, 24 h): 1.02 fold or %
- Mdm2 fold increase or percent reduction vs vehicle control (150 mg/kg BIDx1, 24 h): 5.96 fold or %
- Mdm4 fold increase or percent reduction vs vehicle control (150 mg/kg BIDx1, 24 h): 1.22 fold or %
- Mel1 fold increase or percent reduction vs vehicle control (150 mg/kg BIDx1, 24 h): 9.59 fold or %
- Mlh1 fold increase or percent reduction vs vehicle control (150 mg/kg BIDx1, 24 h): 10.59 fold or %
- Msh2 fold increase or percent reduction vs vehicle control (150 mg/kg BIDx1, 24 h): 26.97 fold or %
- Myod1 fold increase or percent reduction vs vehicle control (150 mg/kg BIDx1, 24 h): 3.09 fold or %
- Nf1 fold increase or percent reduction vs vehicle control (150 mg/kg BIDx1, 24 h): 12.02 fold or %
- Nfkb1 fold increase or percent reduction vs vehicle control (150 mg/kg BIDx1, 24 h): 5.42 fold or %
